Laboratory results published in publication doi:10.1101/2025.11.04.686469, “Discovery of Host-Directed Small Molecules with Broad Anti-Leishmanial Efficacy” (bioRxiv, 2025).

How the values were obtained:
[1] = system: intracellular L. donovani amastigotes; experiment: Luminescent-based evaluation of intracellular anti-leishmanial activity in THP-1 macrophages; format: cell-based, Leishmania donovani; details: intracellular Leishmania donovani in THP1 macrophages, luminescence assay (Supplemental Table 2); read-out: Lum IC50
Protocol: Luminescent strains, L. donovani LV82 expressing firefly luciferase (a kind gift from Dr. Abhay Satoskar, Ohio State University) and L. mexicana (NR-51210, ATCC) expressing renilla luciferase were used to evaluate the effect of the compounds in intracellular and extracellular conditions. Wild-type L. donovani LV82 (ATCC) were used for Giemsa staining based experiments. All parasites were cultured at 25°C and 5% CO2 in M199 media (Corning) supplemented with 10% FBS, 1% penicillin/streptomycin, and hemin (0.01 mg/mL), and used in experiments up to passage 15.
THP-1 cells were seeded in a 96 well plate (25,000 cells/well) overnight then differentiated with 150 nM phorbol 12-myristate 13-acetate (PMA) over 72 hours (Supplemental Figure 1). […] Briefly, promastigotes of a known cell density were resuspended in RPMI media (with 10% FBS, 1% P/S and 0.05 mM β-mercaptoethanol) and incubated with adhered THP-1 cells over 18 hours. After infection, cells were washed three times with fresh media to remove extracellular promastigotes.
Infected macrophages were then treated with compounds solubilized in DMSO ranging from 0.1-10 μM in concentrations. After 72 hours of treatment, the viability of the amastigotes within macrophages was determined using Promega firefly luminescence assay (Cat E1500) or Pierce Renilla luciferase assay (Cat 16166) for L. donovani and L. mexicana strains, respectively. Briefly, media was removed, and cells were lysed with the assay lysis buffer. The luciferase substrate was then incubated with the lysed cells for 10 min at room temperature and luminescence of live Leishmania was measured in a white opaque 96 well plate using a Biotek plate reader.

[2] = system: THP-1 macrophages; experiment: Effect of compounds on host cell viability (MTT); format: cell-based; details: read-out: 24h LC50; THP1 macrophages, 24-hour incubation, MTT assay (Supplemental Table 2)
Protocol: The cells were cultured at 37C, 5% CO2 in RPMI medium (ATCC) supplemented with 10% FBS, 1% Penicillin/Streptomycin and 0.05 mM of β-mercaptoethanol. Cells were used in experiments up to passage 10.
Effect of the compounds on THP-1 cell viability measured using thiazolyl blue tetrazolium bromide which measures cell metabolic activity (MTT). THP-1 cells were seeded in a 96 well plate (25,000 cells/well) overnight then differentiated with 150 nM phorbol 12-myristate 13-acetate (PMA) over 72 hours. Macrophages were then treated with compounds resuspended in RPMI media (1- 50 μM) for 24 hours. Media was replaced with thiazolyl blue tetrazolium bromide solubilized in RPMI media (0.5 mg/mL) and incubated at 37°C for 2 hours. The reduced formazan crystals were solubilized with isopropyl alcohol and the absorbance of the resulting solution was measured at 560 nm with a background subtraction at 670 nm. […] This process was repeated with a 72-hr incubation and extended concentration range (1 - 300 μM) for select compounds.

Structure (SMILES) | IC50 [1] [µM] | CC50 [2] [µM]
CC(=O)c1ccc(-n2cc(C(F)(F)F)nc2-c2ccc(-c3ccccc3)cc2)cc1 [Compound 184] | 5 | > 50
CC(C)(C)c1cc(C(F)(F)F)nn1-c1ccc(N2CCC(N)C2)cc1 (stereo not drawn) [Compound 203] | 2.9 | 11.8
FC(F)(F)c1cc(-c2ccccc2C(F)(F)F)n(-c2ccc(Br)cc2)n1 [Compound 255] | > 10 | > 50
CC(C)(C)OC(=O)N[C@@H]1CCN(c2ccc(-n3nc(C(F)(F)F)cc3-c3ccc(-c4ccc(C(F)(F)F)cc4)cc3)cc2)C1 [Compound 127] | > 10 | > 50
CCc1cc(C(F)(F)F)nn1-c1ccc(NC2CCNC2)cc1 (stereo not drawn) [Compound 318] | 1.8 | 27
NC1CCN(C(=O)c2ccc(-n3cc(C(F)(F)F)nc3-c3ccc(-c4ccc(C(F)(F)F)cc4)cc3)c(F)c2)C1 (stereo not drawn) [Compound 199] | 1.3 | 9.4
NCC(=O)NC1CCN(c2ccc(-n3nc(C(F)(F)F)cc3-c3ccc(-c4ccc(C(F)(F)F)cc4)cc3)cc2)CC1 [Compound 111] | 2.9 | 5.2
CN(C)c1ccc(-c2cc(C(F)(F)F)nn2-c2ccc(N3CCC(NC(=O)OC(C)(C)C)C3)cc2)cc1 (stereo not drawn) [Compound 217] | > 10 | > 50
FC(F)(F)c1ccc(-c2ccc(-c3cc(C(F)(F)F)nn3-c3cccc(Br)c3)cc2)cc1 [Compound 190] | > 10 | > 50
CC(C)(C)OC(=O)NCC(=O)Nc1ccc(-n2cnc3ccccc32)cc1 [Compound 148] | > 10 | > 50
FC(F)(F)c1ccc(-c2ccc(-c3cc(C(F)(F)F)nn3-c3ccc(N4CCNCC4)cc3)cc2)cc1 [Compound 208] | 5.7 | 31
O=C(Nc1ccc(-n2cc(C(F)(F)F)nc2-c2ccc(-c3ccccc3)cc2)cc1)C1CCCN1Cc1ccccc1 (stereo not drawn) [Compound 85] | > 10 | > 50
CC(C)(C)OC(=O)NC1CCN(c2ccc(-n3cc(C(F)(F)F)nc3-c3ccc(-c4ccccc4)cc3)cc2)C1 (stereo not drawn) [Compound 82] | > 10 | > 50
O=[N+]([O-])c1ccc(-n2cnc3ccc(Br)cc32)cc1 [Compound 138] | > 10 | > 50
FC(F)(F)c1ccc(-c2ccc(-c3nc(C(F)(F)F)c[nH]3)cc2)cc1 [Compound 75] | > 10 | 48.8
COC(=O)c1ccc(-n2cc(C(F)(F)F)nc2-c2ccc(-c3ccc(C(F)(F)F)cc3)cc2)c(F)c1 [Compound 175] | > 10 | > 50
FC(F)(F)c1ccc(-c2ccc(-c3cc(C(F)(F)F)nn3-c3ccc(NC4CCN(C5CCCCC5)C4)cc3)cc2)cc1 (stereo not drawn) [Compound 58] | 2.2 | 2.6
FC(F)(F)c1cc(C2CC2)n(-c2ccc(NC3CCNC3)cc2)n1 (stereo not drawn) [Compound 272] | 5.6 | 17.2
O=C(NCc1cccc(F)c1)c1ccc(-n2cc(C(F)(F)F)nc2-c2ccc(-c3ccc(C(F)(F)F)cc3)cc2)c(F)c1 [Compound 181] | > 10 | 28.7
FC(F)(F)c1cc(C2CCCCC2)n(-c2ccc(OC3CCNC3)cc2)n1 (stereo not drawn) [Compound 375] | 6.3 | 12.3
Fc1cccc(CNC2CCN(c3ccc(-n4nc(C(F)(F)F)cc4-c4ccc(-c5ccc(S(F)(F)(F)(F)F)cc5)cc4)cc3)C2)c1 (stereo not drawn) [Compound 108] | > 10 | > 50
FC(F)(F)c1ccc(-c2ccc(-c3nc(C(F)(F)F)cn3-c3ccc(NC4CCNC4)cc3)cc2)cc1 (stereo not drawn) [Compound 246] | 3.8 | 5.5
FC(F)(F)c1ccc(-c2ccc(-c3cc(C(F)(F)F)nn3-c3ccc(NC4CCN(Cc5ccc(Cl)c(C(F)(F)F)c5)C4)cc3)cc2)cc1 (stereo not drawn) [Compound 126] | > 10 | > 50

Structure (SMILES) | IC50 [1] [µM] | CC50 [2] [µM]
FC(F)(F)c1c[nH]c(-c2ccc(Oc3ccccc3)cc2)n1 [Compound 218] | > 10 | > 50
FC(F)(F)Oc1ccc(-n2nc(C(F)(F)F)cc2-c2ccc(-c3ccc(C(F)(F)F)cc3)cc2)cc1 [Compound 186] | > 10 | > 50
Nc1ccc(-n2cc(C(F)(F)F)nc2-c2ccc(Oc3ccccc3)cc2)cc1 [Compound 221] | > 10 | > 50
NC1CCN(c2ccc(-n3nncc3-c3ccc(-c4ccc(C(F)(F)F)cc4)cc3)cc2)C1 (stereo not drawn) [Compound 137] | 4.4 | 7.3
FC(F)(F)c1ccc(-c2ccc(-c3cc(C(F)(F)F)nn3-c3ccc(NC4CCN(Cc5ccc(Cl)c(Cl)c5)CC4)cc3)cc2)cc1 [Compound 90] | > 10 | > 50
CC(C)(C)OC(=O)NC1CCN(c2ccc(-n3nc(C(F)(F)F)cc3-c3ccc(-c4ccc(C(F)(F)F)cc4)cc3)cc2)CC1 [Compound 72] | > 10 | > 50
O=[N+]([O-])c1ccc(-n2cc(C(F)(F)F)nc2-c2ccc(Br)cc2)cc1 [Compound 192] | > 10 | > 50
N#Cc1ccc(CN2CCC(Oc3ccc(-n4nc(C(F)(F)F)cc4C4CCCCC4)cc3)CC2)cc1 [Compound 373] | 7 | > 50
c1cn(-c2ccc3nonc3c2)cn1 [Compound 207] | > 10 | > 50
FC(F)(F)c1cc(C2CCCCC2)n(-c2ccc(NC3CCNC3)cc2)n1 (stereo not drawn) [Compound 312] | 4.8 | 25.5
FC(F)(F)c1cc(-c2ccc(-c3ccccc3)cc2)n(-c2ccc(NCCc3ccccc3)cc2)n1 [Compound 62] | > 10 | > 50
FC(F)(F)c1ccc(-c2ccc(-c3cc(C(F)(F)F)nn3-c3ccc(NCCCCl)cc3)cc2)cc1 [Compound 67] | > 10 | > 50
NCCCCCN1CCC(Oc2ccc(-n3nc(C(F)(F)F)cc3C3CCCCC3)cc2)CC1 [Compound 422] | 2.5 | 6.1
FC(F)(F)c1cn(-c2ccc(Br)cc2)c(-c2ccc(-c3ccccc3)cc2)n1 [Compound 81] | > 10 | > 50
CC(C)(C)OC(=O)NCC(=O)Nc1ccc(-n2cc(C(F)(F)F)nc2-c2ccc(-c3ccc(C(F)(F)F)cc3)cc2)cc1 [Compound 77] | > 10 | > 50
CC(C)(C)OC(=O)NC1CCN(C(=O)c2ccc(-n3cc(C(F)(F)F)nc3-c3ccc(-c4ccc(C(F)(F)F)cc4)cc3)c(F)c2)C1 (stereo not drawn) [Compound 182] | 5.9 | 18
FC(F)(F)c1cc(C2CCCCC2)n(-c2ccc(OC3CCNCC3)cc2)n1 [Compound 370] | 2.6 | 19.5
FC(F)(F)c1cc(-c2cccnc2)n(-c2ccc(Br)cc2)n1 [Compound 249] | > 10 | 50
CC(C)(C)c1ccc(-c2nc(C(F)(F)F)cn2-c2ccc(NC(=O)CN)cc2)cc1 [Compound 157] | > 10 | 27.6
FC(F)(F)C#Cc1ccc(-c2cc(C(F)(F)F)nn2-c2ccc(N3CCNCC3)cc2)cc1 [Compound 93] | > 10 | 40
FC(F)(F)c1cc(-c2ccc(Cl)c(Cl)c2)n(-c2ccc(Br)cc2)n1 [Compound 198] | > 10 | > 50
FC(F)(F)c1cc(C(F)(F)F)n(-c2ccc(NC3CCNC3)cc2)n1 (stereo not drawn) [Compound 314] | 2.7 | 21.9
